Test results as given in patent publication US6673937B2, “Syntheses and methods of use of new antimitotic agents” (The University of Pittsburgh, priority 2000, dated 2004).
Where two headings read alike, the source gives them in different places. One block for each compound: values may come before it.

Key:
Trx-1/TrxR [1] = target: T1, Trx-1/TrxR (Homo sapiens, UniProt P10599+Q16881); details: read-out: IC 50 as Trx-1/TrxR inhibitor; cited from earlier work
T1 sequence (P10599 1-105): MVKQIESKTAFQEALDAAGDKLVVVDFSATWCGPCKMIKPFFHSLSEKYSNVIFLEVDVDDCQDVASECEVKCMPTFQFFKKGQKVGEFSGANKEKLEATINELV
T1 sequence (Q16881 151-649 limits assumed): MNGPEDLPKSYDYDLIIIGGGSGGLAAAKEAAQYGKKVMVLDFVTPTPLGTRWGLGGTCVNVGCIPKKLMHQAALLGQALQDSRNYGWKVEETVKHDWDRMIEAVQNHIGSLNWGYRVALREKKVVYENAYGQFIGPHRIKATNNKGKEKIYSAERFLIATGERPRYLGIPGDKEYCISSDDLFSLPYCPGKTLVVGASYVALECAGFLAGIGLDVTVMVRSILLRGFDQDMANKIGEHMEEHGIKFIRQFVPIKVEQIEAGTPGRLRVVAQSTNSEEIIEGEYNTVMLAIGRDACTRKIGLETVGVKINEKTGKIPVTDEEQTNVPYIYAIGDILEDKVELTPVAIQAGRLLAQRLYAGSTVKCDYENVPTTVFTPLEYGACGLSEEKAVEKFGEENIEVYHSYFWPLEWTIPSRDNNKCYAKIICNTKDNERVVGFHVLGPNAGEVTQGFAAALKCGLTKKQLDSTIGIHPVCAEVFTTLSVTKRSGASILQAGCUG

60 cell line panel = details: read-out: average GI 50; cited from earlier work
Trx-1/TrxR [2] = target: T2, Trx-1/TrxR (Homo sapiens, UniProt P10599+Q16881); experiment: Trx-1/TrxR-dependent insulin reducing assay; type: biochemical; details: calculated from 5 concentrations (0.1 to 50 μM)
T2 construct: Thioredoxin reductase was purified from human placenta as previously described; made in house
T2 sequence (P10599 1-105): T1 sequence (P10599 1-105)
T2 sequence (Q16881 1-499 isoform Q16881-5): T1 sequence (Q16881 151-649 limits assumed)
Method: Thioredoxin reductase was purified from human placenta as previously described (Oblong, J.E.; Gasdaska, P.Y.; Sherrill, K.; Powis,G. Biochemistry 1993, 32, 7271) and recombinant human Trx-1 was prepared as previously described (Gasdaska, P.Y.; Oblong, J.E.; Cotgreave, I.A.; Powis,G. Biochem.Biophys.Acta 1994 ,1218 ,292). TrxR and Trx-1/TrxR activities were measured spectrophotometrically using previously published microtiter plate colorimetric assays, based on the increase in absorbance at 405 nm which occurs as dithionitrobenzoic acid (DTNB) is reduced by the enzyme-mediated transfer of reducing equivalents from NADPH (Gasdaska et al., Biochem.Biophys.Acta 1994 ,1218,292). Trx-1/TrxR-dependent insulin reducing activity was measured in an incubation with a final volume of 60 μL containing 100 mM HEPES buffer, pH 7.2,5 mM EDTA (HE buffer),1 mM NADPH, […],0.8 μM Trx-1 and 2.5 mg/mL bovine insulin. Incubations were for 30 min at 37 ° C. in flat-bottom 96-well microtiter plates. The reaction was stopped by the addition of 100 μL of 6 M guanidine-HC1, 50 mM Tris, pH 8.0, and 10 mM DTNB, and the absorbance measured to 405 nm. TrxR activity was measured in a final incubation volume of 60 μL containing HE buffer, 10 mM DTNB, 1.0 μM TrxR and 1 mM NADPH. Compounds were diluted in HE buffer and added to the wells as 20 μL aliquots, and TrxR was then added,also as 20 μL aliquots in HE buffer. To start the reaction NADPH and DTNB were added as a 20 μL aliquot in HE buffer and the plate was moved to the plate reader which had been preheated to 37 ° C. The optical density at 405 nm was measured every 10 s and initial reaction rates were measured.

[3] = tested on: mouse embryonic fibroblasts transformed with SV40 large T antigen; experiment: Proliferation of SV40 transformed mouse embryonic fibroblasts; type: cell-based; details: 10 μM
Method: Two compounds, 24 referred to herein as SR-4 and 27 referred to herein as SR-7, were examined in greater detail as to their effects on biological activity. The proliferation of MCF-7, MDA-MB-231 and SV40 transformed mouse embryonic fibroblasts was measured by a previously described colorimetric assay (Wipf P, Jung J-K, Rodriguez S, Lazo JS Synthesis and biological evaluation of Deoxypreussomerin A and Palmarumycin CP 1 and related naphthoquinone spiroketals. Tetrahedron 57:283-296, 2001 and Vogt A, Rice RL, Settineri CE, Yokokawa F, Yokokawa S, Wipf P and Lazo JS (1998) Disruption of insulin-like growth factor-I signaling and down-regulation of Cdc2 by SC-ααδ9, a novel small molecule antisignaling agent identified in a targeted array library. J Pharmacol Exptl Therap 287:806-813.). Briefly, the inventors seeded 4,000-6,000 cells per well in microtiter plates. Cells were allowed to attach overnight and treated with vehicle or compounds for 72 h, after which the medium was replaced with serum free medium containing 0.1% 3-[4,5-dimethylthiazol-2-yl]-2,5-diphenyl tetrazolium bromide. Plates were incubated for 3 hours in the dark and total cell number was determined by spectrophotometrically at 540 nm as previously described (Vogt A, Rice RL, Settineri CE, Yokokawa F, Yokokawa S, Wipf P and Lazo JS (1998) Disruption of insulin-like growth factor-1 signaling and down-regulation of Cdc2 by SC-ααδ9, a novel small molecule antisignaling agent identified in a targeted array library. J Pharmacol Exptl Therap 287:806-813.). […] Cells were maintained in RPMI 1640 medium containing 10% fetal bovine serum and the paclitaxel-resistant cells also contained 17 nM paclitaxel and 10 μM verapamil. […] The number of cells was determined spectrophotometrically at 490 nm minus absorbance at 630 nm after exposure to 3-(4,5-dimethylthiazol-2-yl)-5-(3-carboxymethoxyphenyl)-2-(4-sulfophenyl)-2H-tetrazolium and N-methyldibenzopyurazine methyl sulfate. […]

PTPIB = target: T3, PTPIB (Homo sapiens, UniProt P18031); experiment: In vitro inhibition of PTPIB; type: biochemical; details: 30 μM, data not shown
T3 sequence (P18031 1-435): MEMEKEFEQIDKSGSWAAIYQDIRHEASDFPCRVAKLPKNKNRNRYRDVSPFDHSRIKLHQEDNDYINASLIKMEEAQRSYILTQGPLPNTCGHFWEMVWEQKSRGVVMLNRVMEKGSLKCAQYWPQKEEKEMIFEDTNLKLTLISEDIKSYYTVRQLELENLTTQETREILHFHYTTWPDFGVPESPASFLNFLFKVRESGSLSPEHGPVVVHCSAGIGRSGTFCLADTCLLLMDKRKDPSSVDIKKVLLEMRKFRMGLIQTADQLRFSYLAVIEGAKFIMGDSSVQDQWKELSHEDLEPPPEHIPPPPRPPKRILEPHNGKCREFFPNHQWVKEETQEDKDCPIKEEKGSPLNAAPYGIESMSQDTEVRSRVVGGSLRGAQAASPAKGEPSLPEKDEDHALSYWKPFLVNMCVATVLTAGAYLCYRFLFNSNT

VHR = VHR (Homo sapiens, UniProt P51452); experiment: In vitro inhibition of VHR; type: biochemical; details: 30 μM, data not shown
Sequence of VHR (P51452 whole entry, species assumed): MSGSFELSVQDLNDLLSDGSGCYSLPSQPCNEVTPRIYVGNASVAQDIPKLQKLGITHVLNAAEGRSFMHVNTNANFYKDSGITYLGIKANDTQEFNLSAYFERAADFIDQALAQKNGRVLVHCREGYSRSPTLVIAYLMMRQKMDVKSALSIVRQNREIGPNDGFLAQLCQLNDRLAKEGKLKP

recombinant Cdc25 = experiment: In vitro inhibition of recombinant Cdc25; type: biochemical; details: 30 μM, data not shown
MDA-MB-231 cells = experiment: Antiproliferative assay, MDA-MB-231 cells; type: cell-based, human
Excerpt: MDA-MB-231 cells, which were also derived from an adenocarcinoma of the breast, are less differentiated than the MCF-7 cells and fail to express functional p53 or estrogen receptors. This class of tumor cells contains important targets for new therapies, because loss of estrogen receptor expression is associated with poor patient prognosis. (Osborne, C. K. Breast Cane. Res. Treatm. 1998, 51, 227).
The inventors extrapolated to determine the IC50 for compounds with little cytotoxicity at 30,μM, the highest concentration tested. […] The enhanced sensitivity of MCF-7 to these compounds may be due to the expression of p53 in these cells.
Two compounds, 24 referred to herein as SR-4 and 27 referred to herein as SR-7, were examined in greater detail as to their effects on biological activity. The proliferation of MCF-7, MDA-MB-231 and SV40 transformed mouse embryonic fibroblasts was measured by a previously described colorimetric assay (Wipf P, Jung J-K, Rodriguez S, Lazo JS Synthesis and biological evaluation of Deoxypreussomerin A and Palmarumycin CP 1 and related naphthoquinone spiroketals. Tetrahedron 57:283-296, 2001 and Vogt A, Rice RL, Settineri CE, Yokokawa F, Yokokawa S, Wipf P and Lazo JS (1998) Disruption of insulin-like growth factor-I signaling and down-regulation of Cdc2 by SC-ααδ9, a novel small molecule antisignaling agent identified in a targeted array library. J Pharmacol Exptl Therap 287:806-813.). Briefly, the inventors seeded 4,000-6,000 cells per well in microtiter plates. Cells were allowed to attach overnight and treated with vehicle or compounds for 72 h, after which the medium was replaced with serum free medium containing 0.1% 3-[4,5-dimethylthiazol-2-yl]-2,5-diphenyl tetrazolium bromide. Plates were incubated for 3 hours in the dark and total cell number was determined by spectrophotometrically at 540 nm as previously described (Vogt A, Rice RL, Settineri CE, Yokokawa F, Yokokawa S, Wipf P and Lazo JS (1998) Disruption of insulin-like growth factor-1 signaling and down-regulation of Cdc2 by SC-ααδ9, a novel small molecule antisignaling agent identified in a targeted array library. J Pharmacol Exptl Therap 287:806-813.). […] Cells were maintained in RPMI 1640 medium containing 10% fetal bovine serum and the paclitaxel-resistant cells also contained 17 nM paclitaxel and 10 μM verapamil. Cells were plated (2,000/well) in 96-well plates and allowed to attach and grow for 72 hours (paclitaxel and verapamil were removed from resistant cell medium two weeks prior to this plating). They were then treated with 0.5% DMSO vehicle control or 0.08-10 μM compound. The number of cells was determined spectrophotometrically at 490 nm minus absorbance at 630 nm after exposure to 3-(4,5-dimethylthiazol-2-yl)-5-(3-carboxymethoxyphenyl)-2-(4-sulfophenyl)-2H-tetrazolium and N-methyldibenzopyurazine methyl sulfate.
Because of the potential importance of the tumor suppressor gene p53 and the estrogen receptor in controlling the cellular response to cytotoxic agents, the inventors also examined the sensitivity of MDA-MB-231 cells, which lack functional p53 and estrogen receptors. […] As might be expected, these p53 and estrogen receptor deficient cells were generally less sensitive to both natural products and analogs when compared to MCF-7 cells.

[4] = target: thioredoxin reductases (TrxR); details: read-out: K; (thioredoxin reductase inhibition); cited from earlier work
garden cress = details: cited from earlier work

Structure (SMILES): C[C@H]1CO[C@H]2C3=C(C(=O)C=CC3=O)[C@@H]3OC(=O)[C@H]4CC[C@@H]5[C@H]1CC[C@@]52[C@@H]43 [NSC401005]
IC50 (Trx-1/TrxR [1]): 0.17 µM
GI50 (60 cell line panel): 21.5 µM

IC50 (Trx-1/TrxR [2]): > 50 µM
inhibition of PTPIB activity (PTPIB): no inhibition
inhibition of VHR activity (VHR): no inhibition
IC50 (MDA-MB-231 cells; Homo sapiens, MDA-MB-231, 72 hours, read-out: MDA-MB-231 50% cell growth inhibition): 9.2 µM
Structure (SMILES): CC/C=C/CCOc1cccc2c1C(=O)C=CC21Oc2cccc3cccc(c23)O1 [SR-4, (E)-8-(hex-3-enyloxy)-1-oxo-1,4-dihydronaphthalene-4-spiro-2′-naphto [1″,8″-de][1′,3′] dioxin]
growth inhibition at highest concentration tested [3]: no significant inhibition
inhibition of recombinant Cdc25 activity (recombinant Cdc25): no inhibition
enhanced sensitivity of MDA-MB-231 cells compared to MCF-7 cells (MDA-MB-231 cells): five fold enhanced sensitivity
sensitivity of MDA-MB-231 cells, in words (MDA-MB-231 cells; 72 hours, FIG. 23 Panel B): less active

Structure (SMILES): CC(=O)OC[C@H]1O[C@@H]([S-])[C@H](OC(C)=O)[C@@H](OC(C)=O)[C@@H]1OC(C)=O.CCP(CC)CC.[Au+] [auranofin]
Ki [4]: 0.004 µM

Structure (SMILES): O=C1C=CC(=O)[C@@]23O[C@@]12C(=O)C(Cl)=CC31Oc2cccc3cccc(c23)O1 [palmarumycin C4]
germination and growth of garden cress (garden cress): completely inhibited germination and growth

Structure (SMILES): O=C1C=CC(=O)C23OC12C(=O)C1OC1C31Oc2cccc3cccc(c23)O1 (stereo not shown) [palmarumycin C9]
germination and growth of garden cress (garden cress): completely inhibited germination and growth
